Source: patent US20260109707A1, “HETEROBIFUNCTIONAL COMPOUNDS AND METHODS OF TREATING DISEASE” (Halda Therapeutics OpCo. Inc., priority 2022, published 2026)
Read-outs that look alike come from different tables or passages of the source.

Key:
[1] = tested on: T-Rex 293 cell line SC3 cells lacking increased expression of androgen receptor protein; experiment: Cellular growth inhibition assay, T-Rex 293 SC3 cells without doxycycline (CellTiter-Glo, 72 hours); format: cell-based; conditions: T-Rex 293 cell line SC3 cells not exposed to doxycycline (lacking increased androgen receptor expression)
Procedure, shortened: (§1)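 Growth inhibition is measured in an inducible AR-expressing T-Rex 293 clone, SC3, cultured with or without 10 ng/mL doxycycline in hormone-depleted medium. Test compounds are applied for 72 hours. GI50 values derive from CellTiter-Glo 2.0 signal fitted by four-parameter regression.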

T47D cells = experiment: Cellular growth inhibition assay for T47D cells (CellTiter-Glo, 72 hours); format: cell-based, human; conditions: 72 hours treatment
Procedure, shortened: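 Growth inhibition as GI50, fitted with four parameters to CellTiter-Glo luminescence after 72 h of compound exposure (0.5% DMSO). Cells were T47D, grown in insulin-supplemented (0.2 units/mL) DMEM with 10% FBS and treated one day post-seeding.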

VCaP cells = experiment: Cellular growth inhibition assay for VCaP cells (CellTiter-Glo, 72 hours); format: cell-based, human
Procedure, shortened: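 Luminescent viability signal after 72 h of compound exposure gave GI50 values by four-parameter nonlinear regression. Compounds were added in 0.5% DMSO to cells plated 24 h earlier at 5000/well in DMEM containing 10% FBS.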

[2] = tested on: T-Rex 293 cell line SC3 cells having increased expression of androgen receptor protein due to exposure to doxycycline; experiment: Cellular growth inhibition assay, T-Rex 293 SC3 cells with doxycycline (CellTiter-Glo, 72 hours); format: cell-based; conditions: T-Rex 293 SC3 cells with increased androgen receptor expression due to doxycycline (10 ng/mL)
Procedure, shortened: as §1

| Compound | GI50 ([1]; 72 h) | GI50 (T47D cells; Homo sapiens, T47D, 72 h) | GI50 (VCaP cells; Homo sapiens, VCaP, 72 h) | GI50 ([2]; 72 h) | GI50 [1] | GI50 (T47D cells) | GI50 (VCaP cells) | GI50 [2] |
| --- | --- | --- | --- | --- | --- | --- | --- | --- |
| Cc1sc2c(c1C)C(c1ccc(NCC(=O)N3CCC(c4ccc(C(=O)N[C@H]5CC[C@H](Oc6ccc(C#N)c(Cl)c6)CC5)nn4)CC3)cc1)=N[C@H](Cc1ncco1)c1nnc(C)n1-2 [I-248] | 500 to 1500 nM | < 500 nM | < 500 nM | < 500 nM | – | – | – | – |
| Cc1sc2c(c1C)C(c1ccc(N3CCN(C(=O)c4ccc(C(=O)N[C@H]5CC[C@H](Oc6ccc(C#N)c(Cl)c6)CC5)nn4)CC3)cc1)=N[C@@H](Cc1ncco1)c1nnc(C)n1-2 [I-250] | > 3000 nM | 500 to 1500 nM | > 3000 nM | < 500 nM | – | – | – | – |
| Cc1sc2c(c1C)C(c1ccc(OC3CC4(CCCN(c5ccc(C(=O)N[C@H]6CC[C@H](Oc7ccc(C#N)c(Cl)c7)CC6)nn5)C4)C3)nc1)=N[C@@H](Cc1ncco1)c1nnc(C)n1-2 (stereo partly drawn) [I-247] | < 500 nM | < 500 nM | < 500 nM | < 500 nM | – | – | – | – |
| Cc1sc2c(c1C)C(c1ccc(N3CC(C4CCN(c5ccc(C(=O)N[C@H]6CC[C@H](Oc7ccc(C#N)c(Cl)c7)CC6)nn5)CC4)C3)cc1)=N[C@@H](C)c1nnc(C)n1-2 [I-434] | < 500 nM | 500 to 1500 nM | < 500 nM | < 500 nM | – | – | – | – |
| Cc1sc2c(c1C)C(c1ccc(CNC(=O)CN(C)c3ccc(C(=O)N[C@H]4CC[C@H](Oc5ccc(C#N)c(Cl)c5)CC4)nn3)cc1)=N[C@@H](Cc1ncco1)c1nnc(C)n1-2 [I-243] | 500 to 1500 nM | 500 to 1500 nM | 500 to 1500 nM | < 500 nM | – | – | – | – |
| Cc1sc2c(c1C)C(c1ccc(OCC3CC4(CCCN(c5ccc(C(=O)N[C@H]6CC[C@H](Oc7ccc(C#N)c(Cl)c7)CC6)nn5)C4)C3)nc1)=N[C@@H](C)c1nnc(C)n1-2 (stereo partly drawn) [I-425] | – | – | – | – | 500 to 1500 nM | 500 to 1500 nM | < 500 nM | < 500 nM |
| Cc1sc2c(c1C)C(c1ccc(C[C@H]3C[C@@]4(CN(c5ccc(C(=O)N[C@H]6CC[C@H](Oc7ccc(C#N)c(Cl)c7)CC6)nn5)CCO4)C3)cc1)=N[C@@H](Cc1ncco1)c1nnc(C)n1-2 [I-210] | > 3000 nM | 500 to 1500 nM | > 3000 nM | > 3000 nM | – | – | – | – |
| Cc1sc2c(c1C)C(c1ccc(OC[C@H]3CC[C@]4(CCCN(c5ccc(C(=O)N[C@H]6CC[C@H](Oc7ccc(C#N)c(Cl)c7)CC6)nn5)C4)C3)nc1)=N[C@@H](Cc1ncco1)c1nnc(C)n1-2 [I-329] | > 3000 nM | > 3000 nM | < 500 nM | < 500 nM | – | – | – | – |
| Cc1sc2c(c1C)C(c1ccc(C[C@@H]3CCCN(c4ccc(C(=O)N[C@H]5CC[C@H](Oc6ccc(C#N)c(Cl)c6)CC5)nn4)C3)cc1)=N[C@@H](Cc1ncco1)c1nnc(C)n1-2 [I-252] | < 500 nM | < 500 nM | < 500 nM | < 500 nM | – | – | – | – |
| Cc1sc2c(c1C)C(c1ccc(CCC3CCC4CN(c5ccc(C(=O)N[C@H]6CC[C@H](Oc7ccc(C#N)c(Cl)c7)CC6)nn5)CCN4C3)cc1)=NC(Cc1ncco1)c1nnc(C)n1-2 (stereo partly drawn) [I-402] | – | – | – | – | > 3000 nM | > 3000 nM | > 3000 nM | < 500 nM |
| Cc1sc2c(c1C)C(c1ccc([C@H]3C[C@H](C4CC5(CCN(c6ccc(C(=O)N[C@H]7CC[C@H](Oc8ccc(C#N)c(Cl)c8)CC7)nn6)CC5)C4)C3)cc1)=N[C@@H](Cc1ncco1)c1nnc(C)n1-2 [I-381] | > 3000 nM | > 3000 nM | > 3000 nM | > 3000 nM | – | – | – | – |
| Cc1sc2c(c1C)C(c1ccc([C@H]3C[C@@H]3CC3CCCN(c4ccc(C(=O)N[C@H]5CC[C@H](Oc6ccc(C#N)c(Cl)c6)CC5)nn4)C3)cc1)=N[C@@H](Cc1ncco1)c1nnc(C)n1-2 (stereo partly drawn) [I-202] | < 500 nM | < 500 nM | < 500 nM | < 500 nM | – | – | – | – |
| Cc1sc2c(c1C)C(c1ccc([C@H]3C[C@H](C[C@H]4CCCN(c5ccc(C(=O)N[C@H]6CC[C@H](Oc7ccc(C#N)c(Cl)c7)CC6)nn5)C4)C3)cc1)=N[C@@H](Cc1ncco1)c1nnc(C)n1-2 [I-358] | > 3000 nM | < 500 nM | < 500 nM | < 500 nM | – | – | – | – |
| Cc1sc2c(c1C)C(c1ccc(N3CCN(C4CCN(c5ccc(C(=O)N[C@H]6CC[C@H](Oc7ccc(C#N)c(Cl)c7)CC6)nn5)CC4)C3=O)cc1)=NC(Cc1ncco1)c1nnc(C)n1-2 (stereo partly drawn) [I-414] | – | – | – | – | < 500 nM | < 500 nM | < 500 nM | < 500 nM |
| Cc1sc2c(c1C)C(c1ccc(OC[C@H]3C[C@]4(CCCN(c5ccc(C(=O)N[C@H]6CC[C@H](Oc7ccc(C#N)c(Cl)c7)CC6)nn5)C4)C3)cc1)=N[C@@H](Cc1ncco1)c1nnc(C)n1-2 [I-206] | – | – | – | – | > 3000 nM | > 3000 nM | > 3000 nM | 500 to 1500 nM |
| Cc1sc2c(c1C)C(c1ccc(CCCN(C)C(=O)c3ccc(C(=O)N[C@H]4CC[C@H](Oc5ccc(C#N)c(Cl)c5)CC4)nn3)cc1)=N[C@@H](Cc1ncco1)c1nnc(C)n1-2 [I-305] | < 500 nM | < 500 nM | < 500 nM | < 500 nM | – | – | – | – |
| Cc1sc2c(c1C)C(c1ccc(CC3CC4(CCN(c5ccc(C(=O)N[C@H]6CC[C@H](Oc7ccc(C#N)c(Cl)c7)CC6)nn5)CC4)C3)cc1)=N[C@@H](Cc1ncco1)c1nnc(C)n1-2 [I-112] | < 500 nM | < 500 nM | < 500 nM | < 500 nM | – | – | – | – |
| Cc1sc2c(c1C)C(c1ccc([C@@H]3C[C@H]3C3CC4(CCN(c5ccc(C(=O)N[C@H]6CC[C@H](Oc7ccc(C#N)c(Cl)c7)CC6)nn5)CC4)C3)cc1)=N[C@@H](Cc1ncco1)c1nnc(C)n1-2 [I-201] | > 3000 nM | < 500 nM | < 500 nM | < 500 nM | – | – | – | – |
| Cc1sc2c(c1C)C(c1ccc(CCC[C@H]3CCCN(c4ccc(C(=O)N[C@H]5CC[C@H](Oc6ccc(C#N)c(Cl)c6)CC5)nn4)C3)cc1)=N[C@@H](Cc1ncco1)c1nnc(C)n1-2 [I-277] | < 500 nM | < 500 nM | < 500 nM | < 500 nM | – | – | – | – |
| Cc1sc2c(c1C)C(c1ccc(OC[C@H]3C[C@@]4(CCCN(c5ccc(C(=O)N[C@H]6CC[C@H](Oc7ccc(C#N)c(Cl)c7)CC6)nn5)C4)C3)cc1)=N[C@@H](Cc1ncco1)c1nnc(C)n1-2 [I-105] | < 500 nM | < 500 nM | < 500 nM | < 500 nM | – | – | – | – |
| Cc1sc2c(c1C)C(c1ccc([C@@H]3CCN(C(=O)[C@@H]4CCCN(c5ccc(C(=O)N[C@H]6CC[C@H](Oc7ccc(C#N)c(Cl)c7)CC6)nn5)C4)C3)cc1)=N[C@@H](Cc1ncco1)c1nnc(C)n1-2 [I-341] | > 3000 nM | > 3000 nM | > 3000 nM | > 3000 nM | – | – | – | – |
| Cc1sc2c(c1C)C(c1ccc(N3CC4(C3)CC3(CCN(c5ccc(C(=O)N[C@H]6CC[C@H](Oc7ccc(C#N)c(Cl)c7)CC6)nn5)CC3)C4)cc1)=N[C@@H](Cc1ncco1)c1nnc(C)n1-2 [I-348] | > 3000 nM | < 500 nM | < 500 nM | < 500 nM | – | – | – | – |
| Cc1sc2c(c1C)C(c1ccc(C#C[C@H]3C[C@]4(CCCN(c5ccc(C(=O)N[C@H]6CC[C@H](Oc7ccc(C#N)c(Cl)c7)CC6)nn5)C4)C3)cc1)=N[C@@H](C)c1nnc(C)n1-2 [I-337] | 500 to 1500 nM | 500 to 1500 nM | < 500 nM | < 500 nM | – | – | – | – |
| Cc1sc2c(c1C)C(c1ccc(O[C@H]3C[C@@H](N(C(C)C)C4CCN(c5ccc(C(=O)N[C@H]6CC[C@H](Oc7ccc(C#N)c(Cl)c7)CC6)nn5)CC4)C3)cc1)=N[C@@H](Cc1ncco1)c1nnc(C)n1-2 [I-246] | < 500 nM | < 500 nM | < 500 nM | < 500 nM | – | – | – | – |
